Source: EP2769738B1, “Conjugated TLR7 and/or TLR8 and TLR2 polycationic agonists” (Invivogen, priority 2013, dated 2014)
Where “and” joins values, the source holds several entries; their conditions need not be identical. Equal entries are not always repeated.

How the values were obtained:
[1] = system: B16-F1 tumor; test: Mouse B16-F1 tumor model, molecule alone; type: in vivo, C57BL/6 mice; conditions: intra-tumoral, 3 injections
Description: Measurements were performed under gas anesthesia.
The second group received intra-tumoral injections of CL413 molecule alone (a TLR7-TLR2 Pam2CSK4-based molecule). Third and forth groups received intra-tumoral injections of the TLR2 ligand, Pam2CSK4 alone, and the TLR7 ligand alone, respectively. A fifth group received a combined treatment of Pam2CSK4 and TLR7 ligand, in solution at the equivalent molecule quantity of the respective TLR2 and TLR7 moieties in CL413 (in 100µl Bionolyte G5® with Pluronic® F-68 2%) for a total of 3 injections.

[2] = Determination of nanoparticle (lipoplex) size by dynamic light scattering; type: physicochemical; conditions: ratio 3:24 (w:w); for Conformity (C)/ Non-conformity (NC) / Mean Diameter (nm): complexes with pDNA; for Mean Diameter (nm): dynamic light scattering at 25°C; for Mean Diameter (nm) / PDI: triplicate measurements; for PDI: polydispersity index of complexes with pDNA, 25°C
Description: • 1. Preparative HPLC Method: Unless otherwise indicated, the compounds described herein were purified by RP-MPLC ARMEN® Spot Flash Liquid Chromatography (ARMEN Instrument, Saint Ave, France) on a preparative column (SVF D26) packed with 25-40 µm C18 resin (Merck chimie SAS), by applying a linear gradient of 0-10% MeCN in NH4OAc (10 mM) solution (pH = 9) over 60 min at a 15 mL/min flow rate. The purification was monitored at 254 nm. Suitable fractions were pooled and lyophilised. • 2. Proton NMR Spectra: Unless otherwise indicated, all ^1H NMR spectra were run on a Bruker series 300 MHz instrument. Where so characterized, all observed protons are reported as parts-per-million (ppm) downfield from tetramethylsilane (TMS) or other internal reference in the appropriate solvent indicated. NMR spectra were recorded on a Brucker 300 spectrometer. For ^1H (300 MHz) spectra δ values were referenced to CDCI3-d1 (7.26 ppm), DMSO- d6 (2.50 ppm), D2O-d2 (4.79 ppm) or MeOD-d4 (3.31 ppm). The peak patterns are indicated as follows: s: singlet, sl: large singlet, d: doublet, t: triplet, q: quartet, m: multiplet. • 3. Mass Spectra (MS): Analyses were run on an Agilent Model 6130 quadrupole MS. Unless otherwise indicated, all mass spectral data for starting materials, intermediates and/or exemplary compounds are reported as mass/charge (m/z), having an (M+H)^+ molecular ion. The molecular ion reported was obtained by electrospray detection method (commonly referred to as an ESI MS). Compounds having an isotopic atom, such as bromine and the like, are generally reported according to the detected isotopic pattern, as appreciated by those skilled in the art. • 4. Particle size: Particle size was determined using a Malvern Nanosizer (Malvern, Worcestershire, UK) and Malvern ZETASIZER.RTM. (Malvern, Worcestershire, UK). • 5. Naming Convention The compounds disclosed and described herein have been named using the naming convention provided with Chem-Draw Ultra 11.0 software, available in Chem. Office. In some instances, compounds were named with the term "spermine" inserted where appropriate. For example, where the spermine is substituted with Boc, "N1,N5,N10-TriBoc-spermine" is added to the Chem-Draw nomenclature in the appropriate place. Chem-Draw utilizes the ISIS Draw software compound naming convention, as appreciated by those skilled in the art.
For pDNA:TLR7-TLR2 polyamine molecules complexes, a ratio pDNA:TLR7-TLR2 polyamine molecules of 3:24 (w:w) was prepared in serum-free culture medium or in 5% glucose. The TLR7-TLR2 conjugated compound of interest was prediluted in serum-free culture medium or in 5% glucose and incubated for 5 minutes at room temperature, prior to the addition of an endotoxin-free, salt-free preparation of pDNA. In these experiments, the pBsr2pCpGLacZh plasmid was used in the pDNA:TLR7-TLR2 polyamine molecule complexes. The pDNA:TLR7-TLR2 polyamine molecule mixtures were incubated at room temperature for 30 minutes to allow the formation of the complex. The control used in these experiments was the cationic lipid transfection agent LyoVec™ (InvivoGen) prepared in a similar manner.
In order to confirm that TLR7-TLR2 polyamine molecules complex DNA, lipoplex size was determined. The physical characterization of complex was achieved by dynamic light scattering using the analytical equipment for laser diffraction Zetasizer Nano-ZS (Malvern). pDNA:TLR7-TLR2 polyamine molecule complexes were prepared as described above. Subsequently, 50µl of pDNA: TLR7-TLR2 polyamine molecule complexes were placed into a disposable sizing cuvette and measurements were made under conditions defined according to manufacturer's instructions. The measurements were made at 25°C in triplicate and a size distribution report was obtained. […]

[3] = system: B16-F1 cells; test: Cell transfection with SEAP plasmid, B16-F1; type: cell-based, mouse; conditions: Figure 5B; in complex with pVitro14 LGFP SEAP plasmid, 48 hours, SEAP reporter gene expression
Description: (§1) The TLR7-TLR2 molecules were tested for their ability as polyamine molecules to transport plasmid DNA (pDNA) into cells. The pVitro14 LGFP SEAP plasmid (InvivoGen) was complexed to TLR7-TLR2 polyamine molecules and to the control cationic lipid transfection agent, LyoVec™ (InvivoGen). The human HEK293 (ATCC, CRL-1573) and mouse B16-F1 melanoma (ATCC, CRL-6323) cell lines were seeded at a density of 50 000 cells/well and 20 000 cells/well respectively, in the absence or presence of different volumes of the plasmid encoding for the SEAP protein in complex with TLR7-TLR2 polyamine molecules for 48 hours at 37°C and 10% CO2. Transfection efficiency was assessed by measuring SEAP reporter gene expression: 20 µl of supernatant was sampled and mixed with 180 µl of QUANTI-Blue™ Detection (InvivoGen). In the presence of alkaline phosphatase SEAP, the color of QUANTI-Blue™ changes from pink to purple/blue. The intensity of the blue hue reflects the activity of SEAP. The levels of SEAP secretion were determined quantitatively by reading the OD at 620-655 nm using a spectrophotometer, iMark™ Microplate Reader (BIO-RAD).

[4] = system: HEK293 cells; test: Cell transfection with SEAP plasmid, HEK293; type: cell-based, human; conditions: Figure 5A; in complex with pVitro14 LGFP SEAP plasmid, 48 hours, SEAP reporter gene expression
Description: as §1

Row | Compound | tumor volume ([1]; Figure 8A, by day 23, compared to Pam2CSK4 alone, TLR7 ligand alone and vehicle control) | mice still alive (survival) ([1]; Figure 8B, by day 42) | Conformity (C)/ Non-conformity (NC) [2] | Mean Diameter (nm) [2] | PDI [2] | ability to transfect B16-F1 cells [3] | ability to transfect HEK293 cells [4]
1 | CCCCCCCCCCCCCCCC(=O)OCC(CSC[C@@H](N)C(=O)N[C@@H](CO)C(=O)N[C@@H](CCCCN)C(=O)N[C@@H](CCCCN)C(=O)N[C@@H](CCCCN)C(=O)N[C@H](CCCCN)C(=O)Nc1ccc(Cn2c(O)nc3c(N)nc(NCCCC)nc32)cc1)OC(=O)CCCCCCCCCCCCCCC (stereo in doubt) [CL413, (6S,9S,12S,15S,18S,21R)-6,25-diamino-21-(4-((6-amino-2-(butylamino)-8-hydroxy-9H-purin-9-yl)methyl)phenylcarbamoyl)-12,15,18-tris(4-aminobutyl)-9-(hydroxylmethyl)-7,10, 13,16,19-pentaoxo-4-thia-8,11,14,17,20-pentaazapentacosane-1,2-diyl dipalmitate] | no increase in tumor volume | 100% | C (ranged between 140 and 200 nm in diameter were considered to show conformity) | 140,1 nm and 140,2 nm and 139,1 nm | 0,178 and 0,187 and 0,229 | lack the ability to transfect cells | lack the ability to transfect cells
2 | CCCCCCCCCCCCCCCC(=O)N[C@@H](CSCC(COC(=O)CCCCCCCCCCCCCCC)OC(=O)CCCCCCCCCCCCCCC)C(=O)N[C@@H](CO)C(=O)N[C@@H](CCCCN)C(=O)N[C@@H](CCCCN)C(=O)N[C@@H](CCCCN)C(=O)N[C@@H](CCCCN)C(=O)Nc1ccc(Cn2c(O)nc3c(N)nc(NCCCC)nc32)cc1 (stereo partly drawn) [CL534, ((6R,9S,12S,15S,18S,21S)-25-amino-21-(4-((6-amino-2-(butylamino)-8-hydroxy-9H-purin-9-yl)methyl)phenylcarbamoyl)-12,15,18-tris(4-aminobutyl)-9-(hydroxylmethyl)-7,10,13,16,19-pentaoxo-6-palmitamido-4-thia-8,11,14,17,20-pentaazapentacosane-1,2-diyl dipalmitate] |  |  | C (ranged between 140 and 200 nm in diameter were considered to show conformity) | 165,5 nm and 187,1 nm and 182,3 nm | 0,352 and 0,394 and 0,354 | lack the ability to transfect cells | lack the ability to transfect cells
